According to publication PMC8282704 (Clinical cancer research : an official journal of the …, 2021):

How the values were obtained:
[1] = system: patients with HER2-negative metastatic breast cancer; assay: Treatment-related adverse events; assay type: in vivo, human; settings: 11/43; N=1 at 250mg, N=10 at 350mg
[2] = system: patients with HER2-negative metastatic breast cancer; assay type: in vivo
[3] = Plasma pharmacokinetics, phase I, cycle 1; assay type: in vivo, human; settings: 13 patients, with nab-paclitaxel
[4] = system: PI3Kα isoform (both wild-type and mutated p110α); settings: cited from earlier work
[5] = system: other class I isoforms β, δ, and γ; settings: cited from earlier work
[6] = system: hormone receptor-positive metastatic breast cancer; settings: cited from earlier work
[7] = system: PIK3CA/AKT1/PTEN-altered metastatic TNBC; settings: cited from earlier work

For `Cc1nc(NC(=O)N2CCC[C@H]2C(N)=O)sc1-c1ccnc(C(C)(C)C(F)(F)F)c1` [alpelisib], the “Alpelisib dose reduction required, patients” value [1] was 26%, the MTD of alpelisib ([2]; in combination with nab-paclitaxel 100mg/m^2 D1,8,15) was “not reached” and the RP2D of alpelisib ([2]; orally daily, in combination with nab-paclitaxel 100mg/m^2 D1,8,15 every 28 days) was 350 mg. For the same molecule, the “Tmax, Cmax, and AUC (0–8 hrs) of alpelisib” value [3] was “consistent with previous published reports”, the “inhibition of PI3Kα isoform” value [4] was “selectively inhibits PI3Kα isoform” and the “activity against the other class I isoforms β, δ, and γ” value [5] was “significantly less active”.

For `NC1(C(=O)N[C@@H](CCO)c2ccc(Cl)cc2)CCN(c2ncnc3[nH]ccc23)CC1` [capivasertib], the “PFS with addition to fulvestrant” value [6] is listed as “improvement in PFS”.

In the case of `CC(C)NC[C@@H](C(=O)N1CCN(c2ncnc3c2[C@H](C)C[C@H]3O)CC1)c1ccc(Cl)cc1` [ipatasertib], the “PFS with addition to first-line paclitaxel” value [7] is given as “failed to show improvement in PFS”.
